Results published in patent US8865763B2, “Methods and compositions for altering cell function” (Alltech, Inc., priority 2005, dated 2014).

Legend:
Glutathione Peroxidase 1 = assay: Microarray gene expression, mouse intestine: Glutathione Peroxidase 1; format: in vivo; conditions: diet 1 ppm Se, vs selenium deficient, all p < 0.01
Source text: (§1) Animal Care. Male C57BL/6J mice were housed singly and started on the experimental diets described below immediately after weaning (21 days of age). The mice were maintained in the Shared Aging Rodent Facility at the William S. Middleton Memorial Veterans Administration Medical Center (Madison, Wis.). Temperature and humidity were maintained at constant levels. Room light was controlled to provide 12-hr cycles of light and dark.
(§2) Experimental diets were created by Harlan Teklad (Madison, Wis.). Selenium content of the diets was determined by Covance Inc. (Madison, Wis.). Five (5) animals were included in each of the following treatment groups: a diet deficient in selenium (SD); a diet supplemented with selenomethionine (SM, obtained from Sigma, St. Louis, Mo.) such that the final selenium content of the diet was one (1) part per million; a diet supplemented with sodium selenite (SS, Sigma) such that the final concentration of selenium in this diet was one (1) part per million; or a diet supplemented with the yeast selenium SEL-PLEX (SP, Alltech, Lexington, Ky.), such that the final concentration of selenium in this diet was one (1) part per million. SEL-PLEX. […]
(§3) Tissue sample preparation and microarray analysis. […] For intestinal expression studies, the intestine was flushed twice with saline solution and small intestine was measured and divided in three equal segments. […]

Glutathione Peroxidase 3 = assay: Microarray gene expression, mouse intestine: Glutathione Peroxidase 3; format: in vivo; conditions: diet 1 ppm Se, vs selenium deficient, all p < 0.01
Source text: as §1, §2, §3

[1] = test system: Type 1 iodothyronine deiodinase; assay: Microarray gene expression, mouse intestine: Type 1 iodothyronine deiodinase; format: in vivo; conditions: diet 1 ppm Se, vs selenium deficient
Source text: as §1, §2, §3

Selenoprotein W (SelW) = assay: Microarray gene expression, mouse intestine: SelW; format: in vivo; conditions: diet 1 ppm Se, vs selenium deficient
Source text: as §1, §2, §3

selenoprotein N1 (Sepn1) = assay: Microarray gene expression, mouse intestine: Sepn1; format: in vivo; conditions: diet 1 ppm Se, vs selenium deficient
Source text: as §1, §2, §3

SelR (Selenoprotein X1) = assay: Microarray gene expression, mouse intestine: SelR; format: in vivo; conditions: diet 1 ppm Se, vs selenium deficient
Source text: as §1, §2, §3

[2] = test system: type II iodothyronine deiodinase (Dio2); assay: Microarray gene expression, mouse intestine: Dio2; format: in vivo; conditions: diet 1 ppm Se, vs selenium deficient
Source text: as §1, §2, §3

Glyoxalase 1 (Glo1) = assay: Microarray gene expression, mouse intestine: Glo1; format: in vivo; conditions: diet 1 ppm Se, vs selenium deficient
Source text: as §1, §2, §3

[3] = test system: Growth arrest and DNA-damage-inducible 45 gamma (Gadd45g); assay: Microarray gene expression, mouse intestine: Gadd45g; format: in vivo; conditions: diet 1 ppm Se, vs selenium deficient, negative = down
Source text: as §1
Experimental diets were created by Harlan Teklad (Madison, Wis.). Selenium content of the diets was determined by Covance Inc. (Madison, Wis.). Five (5) animals were included in each of the following treatment groups: a diet deficient in selenium (SD); a diet supplemented with selenomethionine (SM, obtained from Sigma, St. Louis, Mo.) such that the final selenium content of the diet was one (1) part per million; a diet supplemented with sodium selenite (SS, Sigma) such that the final concentration of selenium in this diet was one (1) part per million; or a diet supplemented with the yeast selenium SEL-PLEX (SP, Alltech, Lexington, Ky.), such that the final concentration of selenium in this diet was one (1) part per million. SEL-PLEX. Mice were provided with water and their respective diet ad libitum for 100 days. Diets were stored at the dark at 4° C. and fresh diet was added to feeder twice weekly.
Tissue sample preparation and microarray analysis. Mice were killed at 100 days of age by cervical dislocation. For intestinal expression studies, the intestine was flushed twice with saline solution and small intestine was measured and divided in three equal segments. A 3-cm region of the middle segment of the small intestine corresponding to the jejunum (˜300 mg of tissue) was cut and rinsed again with physiological saline to completely remove contents, flash frozen in liquid nitrogen and stored at −80° C. For brain (e.g., cerebral cortex) studies, the cerebral cortex was separated from the surrounding brain tissue and was flash frozen in liquid nitrogen and stored at −80° C. […]

Prohibitin (Phb) = assay: Microarray gene expression, mouse intestine: Phb; format: in vivo; conditions: diet 1 ppm Se, vs selenium deficient
Source text: as §1, §2, §3

[4] = test system: LIM homeobox protein 8 gene (Lhx8); assay: Microarray gene expression, mouse intestine: Lhx8; format: in vivo; conditions: diet 1 ppm Se, vs selenium deficient
Source text: as §1, §2, §3

[5] = test system: transforming growth factor beta 2 (TGF-β2); assay: Microarray gene expression, mouse intestine: TGF-β2; format: in vivo; conditions: diet 1 ppm Se, vs controls
Source text: as §1, §2, §3

Neurogenin 3 (Neurog3) = assay: Microarray gene expression, mouse intestine: Neurog3; format: in vivo; conditions: diet 1 ppm Se, vs selenium deficient
Source text: as §1, §2, §3

[6] = test system: sprouty homolog 2 gene (Spry2); assay: Microarray gene expression, mouse intestine: Spry2; format: in vivo; conditions: diet 1 ppm Se, vs Se-deficient controls
Source text: as §1, §2, §3

[7] = test system: Complement component 1, q subcomponent, gamma polypeptide, C1qg; assay: Microarray gene expression, mouse cerebral cortex: C1qg; format: in vivo; conditions: diet 1 ppm Se, vs selenium deficient, * p<0.01
Source text: as §1, §2, §3

CORS-26 = assay: Microarray gene expression, mouse cerebral cortex: CORS-26; format: in vivo; conditions: diet 1 ppm Se, vs selenium deficient
Source text: as §1, §2, §3

[8] = Body weight of mice on selenium diets; format: in vivo, mouse; conditions: mouse, in vivo
Source text: as §1
Experimental diets were created by Harlan Teklad (Madison, Wis.). Selenium content of the diets was determined by Covance Inc. (Madison, Wis.). […]
Thus, it was an object of the present invention to determine whether compositions and methods of the present invention could alter the expression levels (e.g., mRNA levels) of various genes. One group of genes analyzed were genes classically associated with selenium. As described above, the expression levels of genes were analyzed between mice with and without dietary selenium, or, between mice fed different sources of selenium) (See, e.g., Table 1, below).

[9] = Hen Brain Se Concentration; format: in vivo, White-Egg-Laying Hens; conditions: hens; diet with 0.3 ppm Se from the source
Description: (§4) Compositions and methods of the present invention were utilized to evaluate the effects of various Se sources on the accumulation of brain Se concentrations in hens and their offspring.
(§5) The study was conducted at the Coldstream Research Facility from Jun. 28, 2004 until Nov. 16, 2004. Six dietary treatments were fed to a total of 48 hens (r=8) that were bred on three consecutive days starting on Sep. 16, 2004.
(§6) • Basal (no added Se) • Selenite (0.3 ppm) • Sel Plex (0.3 ppm) • Tepsel (0.3 ppm) • Se 2000 (0.3 ppm) • Selenosource (0.3 ppm)
(§7) Chicks that hatched were divided into two groups. Half of the chicks were killed for brain collection and the remaining chicks were allowed to grow for 14 days on a Se deficient diet, at which time they were terminated for brain collection. Hen brains were analyzed for Se content individually, whereas the chick brains were homogenized and pooled because of small sample size.
(§8) Brain Se concentrations for the hens and chicks are shown in Tables 4 and 5, below, respectively. The Selenosource value represents only one hen brain analyzed and therefore was not included in the statistical analysis.

[10] = Chick Brain Se Concentration at day 14; format: in vivo, chicks (offspring of treated hens); conditions: offspring of hens fed 0.3 ppm Se; chicks 14 days on Se deficient diet; pooled brains
Description: as §4, §5, §6, §7, §8

Row | SMILES | fold change in expression of Glutathione Peroxidase 1 (Glutathione Peroxidase 1) [fold] | fold change in expression of Glutathione Peroxidase 3 (Glutathione Peroxidase 3) [fold] | fold increase of expression level of Type 1 iodothyronine deiodinase [1] [fold] | expression of Selenoprotein W (SelW), fold upregulated (Selenoprotein W (SelW)) | expression of selenoprotein N1 (Sepn1), fold increased (selenoprotein N1 (Sepn1)) | expression of SelR, fold upregulated (SelR (Selenoprotein X1)) | expression of Dio2, fold down-regulation [2] | expression of Glo1, fold reduction (Glyoxalase 1 (Glo1)) | FC (fold change) expression of Gadd45g [3] | FC (fold change) expression of Gadd45g ([3]; listed as SM) [fold] | expression of Prohibitin (Phb), fold upregulated (Prohibitin (Phb)) [fold] | expression of Lhx8, fold upregulated [4] | expression of TGF-β2 (printed TGF-β), fold upregulated [5] | Neurog3 expression, fold upregulated (Neurogenin 3 (Neurog3)) | Spry2 gene expression, fold reduction [6] | FC (fold change) expression of C1qg [7] [fold] | expression of CORS-26, fold reduction (CORS-26) | body weights of mice [8] | Hen Brain Se Concentration [9] [ppb] | Chick Brain Se Concentration at day 14 [10] [ppb]
1 | C[Se]CC[C@H](N)C(=O)O [SeM, selenomethionine] | 4.9 | 4.6 | 2.0 | not significantly altered | not significantly affected | not significantly affected | no ability to alter the expression levels | not significantly affected | decreased expression | −1.5 | 1.6 | not significantly different | not altered | no significant alteration | no alteration in expression levels | 1.0 | no alteration in expression levels | No significant differences |  | 
2 | O=[Se](O)O [Selenite] |  |  |  |  |  |  |  |  |  |  |  |  |  |  |  |  |  |  | 850 | 784
